The values that follow come from US8519136B2, “Aminopyridine derivatives having aurora a selective inhibitory action” (MSD K.K., priority 2008, dated 2013).

The target of assay [1] is T1, His-tagged human Aurora A (Homo sapiens, UniProt O14965).
T1 construct: His (N); made in house; host or cells: Escherichia coli BL21-CodonPlus(DE3)-RIL
T1 sequence (O14965 1-403): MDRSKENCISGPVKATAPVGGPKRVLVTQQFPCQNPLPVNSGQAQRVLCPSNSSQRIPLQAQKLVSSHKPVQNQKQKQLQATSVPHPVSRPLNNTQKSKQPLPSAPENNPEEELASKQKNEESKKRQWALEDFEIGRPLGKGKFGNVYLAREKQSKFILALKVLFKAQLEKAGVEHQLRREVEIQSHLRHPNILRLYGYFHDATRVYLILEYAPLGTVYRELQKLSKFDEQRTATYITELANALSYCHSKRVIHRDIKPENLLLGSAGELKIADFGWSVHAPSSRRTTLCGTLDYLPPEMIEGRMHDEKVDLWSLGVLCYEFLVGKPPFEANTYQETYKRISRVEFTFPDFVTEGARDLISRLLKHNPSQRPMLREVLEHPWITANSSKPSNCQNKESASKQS
Description: Aurora A inhibitory activity (IMAP fluorescence polarization). It counts as biochemical. The following applies: 20 μM ATP, 30° C., 120 minutes. The source says: cDNA of N-terminal His-tagged human Aurora A was integrated into an expression vector, which was then highly expressed in Escherichia coli BL21-CodonPlus(DE3)-RIL cells. The Escherichia coli was harvested and lysed, and then the His-tagged human Aurora A protein was applied onto a nickel chelate column and eluted from the column with imidazole. The active fractions were desalted with a desalting column to give a purified enzyme.
For measurement of the activity of Aurora A, the substrate used was a synthetic peptide (5-FAM (5-carboxyfluorescein)-γ-aminobutyric acid-Ala-Leu-Arg-Arg-Ala-Ser-Leu-Gly-NH2) (SEQ.ID.NO.: 1), which was purchased from Toray Research Center, Inc.
For the phosphorylation reaction, the method by Upstate, Inc. [Kinase Profiler™ Assay Protocols] was referred to, and phosphorylation of the substrate was detected using IMAP® technology (Molecular Devices, Co. Ltd.) (Gaudet E W. et. al, J. Biomol. Screen, 8, 164-175 (2003)). Concretely, the phosphorylation reaction and the detection were carried out as follows:
The phosphorylation reaction was conducted using 384 well plate, and the reaction volume was 10 μl/well. The reaction buffer is comprised of 50 mM Tris-chloride buffer (pH 7.4), 15 mM magnesium acetate, and 0.2 mM ethylenediamine-N,N,N′,N′-tetraacetic acid (EDTA). Thereto, the purified Aurora A protein, 100 nM of the peptide substrate, and 20 μM of adenosine 5′-triphosphate (ATP) were added, and then the reaction was carried out at 30° C. for 120 minutes.
Thereafter, in order to terminate and detect the reaction, 30 μl of the IMAP (registered trademark) binding reagent (IMAP Progressive Binding Reagent, R7284) that had been diluted (1:400) in the 1×IMAP binding buffer A (IMAP Progressive Binding Buffer A, 5× stock, R7282) was added to each well. The solution stood still for 60 minutes in the dark, and then fluorescence polarization was measured using a high-end microplate reader (excitation wavelength: 485 nm; emission wavelength: 520 nm).
The compound to be tested was added to the reaction system such that a dilution series of the compound in dimethylsulfoxide (DMSO) was prepared, and then 0.5 μL of this solution was added for the testing to each well. Each control well was provided by adding 0.5 μL of DMSO to the well in place of the DMSO solution containing the compound to be tested.
Background: Fluorescence polarisation rises when a labelled molecule tumbles more slowly, as on binding a larger partner.

Assay [2] concerns the target T2, GST-tagged human Aurora B(AurB)/His-tagged human INCENP complex proteins (Homo sapiens, UniProt Q96GD4).
T2 construct: GST; purchased Carna Biosciences, Inc
Briefly: Aurora B inhibitory activity (Method A, IMAP kit). Format: biochemical. Particulars: 40 μM ATP, 25° C., 45 minutes. Here is the method: An assay development kit for IMAP (registered trademark) (Aurora B), purchased from Carna Biosciences, Inc., was used for phosphorylation reaction, and the phosphorylation of a substrate was detected using the IMAP technology. The assay development kit used is comprised of an assay buffer, GST-tagged human Aurora B(AurB)/His-tagged human INCENP complex proteins (amino acid sequence: 803-916, AAU04398.1), and an ATP/substrate solution. Using the same, the phosphorylation reaction was conducted in accordance with a partially revised protocol attached to the kit, and then the phosphorylation of the substrate was detected using the IMAP technology.
For the phosphorylation reaction, 384 well plate was used, and the reaction volume was 10 μl/well. The composition of the reaction buffer (assay buffer) is comprised of 20 mM of HEPES buffer (pH 7.4), 0.01% Tween-20, and 2 mM of dithiothreitol (DTT). Thereto, AurB/INCENP complex protein, 100 nM of the substrate, and 40 μM of ATP, and 1 mM of magnesium salt were added, and then the reaction was conducted at 25° C. for 45 minutes. Thereafter, in order to terminate and detect the reaction, 30 μl of the IMAP (registered trademark) binding reagent (IMAP Progressive Binding Reagent, R7284) that had been diluted (1:400) in the 1×IMAP binding buffer A (IMAP Progressive Binding Buffer A, 5× stock, R7282) was added to each well. The solution stood still for 60 minutes in the dark, and then fluorescence polarization was measured using a high-end microplate reader (excitation wavelength: 485 nm; emission wavelength: 520 nm).
The compound to be tested was added to the reaction system such that a dilution series of the compound in DMSO was prepared, and then 0.5 μL of this solution was added for the testing to each well. Each control well was provided by adding 0.5 μL of DMSO to the well in place of the DMSO solution containing the compound to be tested.

Assay [3] has as its system Human cervical cancer cells (HeLa S3). Description: Cell growth inhibitory effect, WST-8 method. It counts as cell-based. Particulars: 72 h, HeLa S3, three days incubation, read-out: Cell growth inhibitory effect (HeLaS3) (IC50). As for the experimental part:
Fetal calf serum (FCS) was purchased from Moregate Biotech, and DMEM medium was purchased from Invitrogen Corp. WST-8 was purchased from Kishida Chemical Co., Ltd.
(§1) Human cervical cancer cells (HeLa S3) were obtained from the American Type Culture Collection (ATCC).
Cells were suspended in a DMEM medium containing 10% FCS, and the cell suspension was dispensed to a 96-well plastic plate at a rate of 750 cells/100 microliters per well. The plate was incubated overnight in 5% CO2-95% air at 37° C. A drug was subjected to graded dilution in dimethylsulfoxide and further diluted with a DMEM medium containing 10% FCS. Then, the dilution was dispensed to the plate on which cells had been disseminated, at a rate of 100 microliters per well. The plate was incubated for further three days in 5% CO2-95% air at 37° C. Cell growth after incubation was measured by the WST-8 method (H. Tominaga, et al., Anal. Commun., 36, 47-50 (1999)). Here, the WST-8 method refers to a method in which 20 microliters of a WST-8 reagent solution is added to each well, incubation is conducted at 37° C. for 60 minutes, the plate is stirred, and the amount of formazan produced is measured by a colorimetric method to determine the inhibitory rate of the drug. The concentration for 50% growth inhibition (IC50, μM) of the compound was determined.

The test system is the same in assay [4]. Description: Effect by combined use of drugs in cells (with docetaxel), WST-8 method. It counts as cell-based. Particulars: HeLa S3, three days; for inhibition at 0.03 µM: compound 30 nM alone. As for the experimental part:
Fetal calf serum (FCS) was purchased from Moregate Biotech, DMEM medium from Invitrogen Corp., docetaxel (tradename: Taxere) from Sigma-Aldrich, Inc., and WST-8 from Kishida Chemical Co., Ltd.
as §1
Cells were suspended in a DMEM medium containing 10% FCS, and the cell suspension was dispensed to two 96-well plastic plates at a rate of 750 cells/100 microliters per well. The plates were incubated overnight in 5% CO2-95% air at 37° C. A drug was subjected to graded dilution in dimethylsulfoxide and further diluted with DMSO or with a DMEM medium containing 10% FCS and also containing 0.6 nM docetaxel. Then, the dilutions were each dispensed to one of the plates on which cells had been disseminated, at a rate of 100 microliters per well. The final concentration of docetaxel at this stage was 0.3 nM. Also, the concentrations in the case of sole administration of the compound according to the invention were 0.003, 0.01, 0.03, 0.1, 0.3, 1, 3 and 10 μM. The plates were incubated for further three days in 5% CO2-95% air at 37° C. Cell growth after incubation was measured by the WST-8 method (H. Tominaga, et al., Anal. Commun., 36, 47-50 (1999)). Here, the WST-8 method refers to a method in which 20 microliters of a WST-8 reagent solution is added to each well, incubation is conducted at 37° C. for 60 minutes, the plate is stirred, and the amount of formazan produced is measured by a colorimetric method to determine the inhibitory rate of the drug. The growth inhibitory effects of docetaxel and of the compound according to the invention were determined, with the value obtained in sole treatment of DMSO being defined as 0%.
(In general: Tetrazolium dyes change colour on reduction, which living cells bring about.)

The mark [5] stands for this setting: Homo sapiens, HeLa S3, 72 h, read-out: Cell growth inhibitory effect by sole administration of the compound of Example (%).
Where [6] appears, read: compound 30 nM + docetaxel 0.3 nM.

For orientation: IC50 means the concentration that gives 50% inhibition.

SMILES strings stand for the structures. Structures can show the parent of a compound that is named as a salt.

T2 sequence (Q96GD4 whole entry): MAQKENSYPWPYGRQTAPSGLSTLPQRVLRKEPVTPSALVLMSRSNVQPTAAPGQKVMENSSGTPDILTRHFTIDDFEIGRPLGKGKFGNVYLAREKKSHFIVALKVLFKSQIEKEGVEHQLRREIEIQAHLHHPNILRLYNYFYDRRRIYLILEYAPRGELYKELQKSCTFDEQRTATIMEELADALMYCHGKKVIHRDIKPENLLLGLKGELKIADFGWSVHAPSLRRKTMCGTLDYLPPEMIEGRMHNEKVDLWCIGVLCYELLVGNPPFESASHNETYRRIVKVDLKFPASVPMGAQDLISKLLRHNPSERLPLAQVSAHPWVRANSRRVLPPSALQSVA
T2 sequence (Q9NQS7 803-916 partner limits assumed): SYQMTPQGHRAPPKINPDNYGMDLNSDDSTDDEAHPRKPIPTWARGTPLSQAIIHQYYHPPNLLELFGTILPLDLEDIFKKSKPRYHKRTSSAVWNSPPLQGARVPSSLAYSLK

Regarding `O=C(c1cccc(C(F)(F)F)c1F)N1CCC(Cc2cccc(Nc3cc[nH]n3)n2)(c2n[nH]c(=O)o2)CC1` [Example 9, 5-(1-(2-fluoro-3-(trifluoromethyl)benzoyl)-4-((6-(1H-pyrazol-3-ylamino)pyridin-2-yl)methyl)piperidin-4-yl)-1,3,4-oxadiazol-2(3H)-one], the results for the 50% inhibitory concentration (IC50) in assay [1], in assay [2] and in assay [3] were 0.25 nM, 35.8 nM and 220 nM, respectively. Moreover, the inhibition at 0.03 µM in assay [4] (setting [5]) amounted to 20.3%. Also, the “Cell growth inhibitory effect by combined administration of docetaxel and the compound of Example (%)” value in assay [4] (setting [6]) was found to be 90.9%.
The like results for `O=C(c1cccc(Cl)c1F)N1CCC(Cc2cccc(Nc3cc[nH]n3)n2)(c2n[nH]c(=O)o2)CC1` [Example 10, 5-(1-(3-chloro-2-fluorobenzoyl)-4-((6-(1H-pyrazol-3-ylamino)pyridin-2-yl)methyl)piperidin-4-yl)-1,3,4-oxadiazol-2(3H)-one trifluoroacetate] were, in that order, 0.27 nM, 166 nM, 280 nM, 3.3% and 84.8%.
For the compound `O=C(c1cccc(Cl)c1F)N1CCC(Cc2cc(-c3ccccc3)cc(Nc3cc[nH]n3)n2)(c2n[nH]c(=O)o2)CC1` [Example 17, 5-(1-(3-chloro-2-fluorobenzoyl)-4-((4-phenyl-6-(1H-pyrazol-3-ylamino)pyridin-2-yl)methyl)piperidin-4-yl)-1,3,4-oxadiazol-2(3H)-one], the IC50 amounted to 0.3 nM in assay [1], 381 nM in assay [2] and 100 nM in assay [3]. Besides, the inhibition at 0.01 µM in assay [4] (Homo sapiens, HeLa S3, 72 h, compound 10 nM alone, read-out: Cell growth inhibitory effect by sole administration of the compound of Example (%)) was 4.2%. In assay [4] (compound 10 nM + docetaxel 0.3 nM), the “Cell growth inhibitory effect by combined administration of docetaxel and the compound of Example (%)” value was 80.8%.
